Measurements as given in patent US12391683B2, “Therapeutic compounds and methods” (Actio Biosciences, Inc., priority 2022, dated 2025).

Legend:
[1] = target: T1, TRPA1 channels (Homo sapiens, UniProt O75762); assay: TRP Family FLIPR Assay, TRPA1; type: cell-based; details: CHO cells
T1 construct: expressed in transfected cells; host or cells: CHO
Protocol: (§1) The compound of Example 5 was tested for selectivity against a panel of Human TRP family ion channels in a TRP Family FLIPR Assay as described below. • 1. TRPC3 channels (human TRPC3 variant 1 gene, expressed in HEK293 cells). • 2. TRPC4 channels (human TRPC4 gene, expressed in HEK293 cells). • 3. TRPC5 channels (human TRPC5 gene, expressed in HEK293 cells). • 4. TRPC6 channels (human TRPC6 gene, expressed in HEK293 cells). • 5. TRPM2 channels (human TRPM2 gene, transiently expressed in HEK293 cells). • 6. TRPM3 channels (human TRPM3 gene, transiently expressed in HEK293 cells). • 7. TRPM4 channels (human TRPM4 gene, expressed in CHO cells). • 8. […]
(§2) Data acquisition was performed via the FLIPR Control software supplied with the FLIPR System (MDS-AT) and data was analyzed using Microsoft Excel (Microsoft Corp., Redmond, WA) or GraphPad Prism. […]
(§3) [formula] where Base is the response at low concentrations of test article, Max is the maximum response at high concentrations, xhalf the EC50, or IC50, the concentration of test article producing either half-maximal activation or inhibition, and rate is the Hill coefficient. […] No assumptions about the fit parameters was made; the fit parameters were determined by the algorithm.
(§4) The effect of each test article was evaluated at eight (8) concentrations: 0.003, 0.01, 0.03, 0.1, 0.3, 1, 3 and 10 μM, n≤4 wells/concentration). […]

[2] = target: T2, TRPV3 channels (Homo sapiens, UniProt Q8NET8); assay: TRP Family FLIPR Assay, TRPV3; type: cell-based; details: HEK293 cells (transient)
T2 construct: expressed in transfected cells; host or cells: HEK293 (transient)
T2 sequence (Q8NET8 1-790): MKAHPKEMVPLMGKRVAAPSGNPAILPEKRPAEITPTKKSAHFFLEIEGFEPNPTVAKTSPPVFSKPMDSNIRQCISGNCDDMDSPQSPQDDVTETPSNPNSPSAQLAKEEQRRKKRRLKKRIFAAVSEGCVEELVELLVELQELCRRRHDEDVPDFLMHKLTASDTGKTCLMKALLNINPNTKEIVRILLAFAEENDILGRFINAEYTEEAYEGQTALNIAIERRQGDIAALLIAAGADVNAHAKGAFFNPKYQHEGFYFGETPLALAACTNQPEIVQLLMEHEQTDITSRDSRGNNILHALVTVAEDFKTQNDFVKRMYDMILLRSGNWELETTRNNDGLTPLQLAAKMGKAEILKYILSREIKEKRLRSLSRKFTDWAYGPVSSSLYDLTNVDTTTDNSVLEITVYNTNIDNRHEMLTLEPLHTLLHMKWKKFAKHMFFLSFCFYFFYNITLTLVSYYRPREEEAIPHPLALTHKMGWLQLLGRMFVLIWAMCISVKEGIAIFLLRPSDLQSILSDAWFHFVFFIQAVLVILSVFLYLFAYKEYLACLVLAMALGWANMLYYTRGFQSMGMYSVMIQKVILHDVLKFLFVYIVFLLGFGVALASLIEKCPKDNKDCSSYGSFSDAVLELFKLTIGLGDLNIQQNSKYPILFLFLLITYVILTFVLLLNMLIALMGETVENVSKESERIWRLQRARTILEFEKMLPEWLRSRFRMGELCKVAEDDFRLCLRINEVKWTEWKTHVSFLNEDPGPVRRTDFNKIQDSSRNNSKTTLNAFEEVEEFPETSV
Protocol: as §1, §2, §3, §4

T1 sequence (O75762 whole entry): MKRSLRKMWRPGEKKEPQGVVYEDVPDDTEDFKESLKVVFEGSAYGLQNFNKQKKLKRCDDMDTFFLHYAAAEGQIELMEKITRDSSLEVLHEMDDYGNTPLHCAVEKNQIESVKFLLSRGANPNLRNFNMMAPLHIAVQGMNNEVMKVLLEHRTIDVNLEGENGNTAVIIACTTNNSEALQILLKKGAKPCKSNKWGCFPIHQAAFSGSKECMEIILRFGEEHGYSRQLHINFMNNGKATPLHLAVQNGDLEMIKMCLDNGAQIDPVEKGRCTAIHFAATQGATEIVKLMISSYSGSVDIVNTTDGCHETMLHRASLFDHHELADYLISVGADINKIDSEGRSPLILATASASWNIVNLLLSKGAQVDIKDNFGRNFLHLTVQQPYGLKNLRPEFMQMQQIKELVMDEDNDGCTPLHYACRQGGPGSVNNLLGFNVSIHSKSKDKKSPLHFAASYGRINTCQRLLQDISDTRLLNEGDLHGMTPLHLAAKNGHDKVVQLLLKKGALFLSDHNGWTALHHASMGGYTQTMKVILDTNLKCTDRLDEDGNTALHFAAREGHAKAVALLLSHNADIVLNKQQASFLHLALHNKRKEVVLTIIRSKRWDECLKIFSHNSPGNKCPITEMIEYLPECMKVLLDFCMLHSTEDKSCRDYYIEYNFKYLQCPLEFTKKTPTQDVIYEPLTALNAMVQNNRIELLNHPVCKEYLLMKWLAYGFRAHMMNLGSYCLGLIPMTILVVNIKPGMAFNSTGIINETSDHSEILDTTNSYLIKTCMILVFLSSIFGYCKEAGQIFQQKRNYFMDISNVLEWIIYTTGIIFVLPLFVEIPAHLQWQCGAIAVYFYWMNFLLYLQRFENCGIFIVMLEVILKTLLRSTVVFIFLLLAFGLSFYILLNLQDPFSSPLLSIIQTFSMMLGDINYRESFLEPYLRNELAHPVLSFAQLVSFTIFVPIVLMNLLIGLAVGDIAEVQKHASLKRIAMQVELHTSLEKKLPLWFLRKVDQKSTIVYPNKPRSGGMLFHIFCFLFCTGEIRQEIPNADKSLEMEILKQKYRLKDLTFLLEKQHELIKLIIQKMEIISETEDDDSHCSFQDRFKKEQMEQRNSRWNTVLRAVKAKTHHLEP

CC(C)(O)c1cnc(N2C[C@@]3(CC[C@@H](F)[C@](C)(Cn4cnc5ccc(C#N)cc54)C3)OC2=O)cn1 (single isomer, unassigned) [Example 5]
> 10 µM: EC50 ([1]; agonist mode, vs EMAX of mustard oil 600 μM, read-out: EC50 hTRPA1) | IC50 ([1]; antagonist mode, activated with mustard oil 80 μM, 0.003-10 μM, read-out: IC50 hTRPA1) | EC50 ([2]; agonist mode, vs EMAX of cannabidiol 300 μM, read-out: EC50 hTRPV3) | IC50 ([2]; antagonist mode, activated with 2-APB 50 μM, 0.003-10 μM, read-out: IC50 hTRPV3)
